# Source: US20250122219A1 (priority 2023, published 2025)
# Assays:
# [1] = Cytotoxicity assay in MT-4 cells; format: cell-based; details: human; uninfected MT-4 cells, 5 days incubation, Cell Titer Glo; read-out: MT4 CC50
# Summary of the method: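 Uninfected MT-4 cells exposed to serially diluted compounds in RPMI with 10% FBS for 5 days at 37 °C. Viability by Cell Titer Glo chemiluminescence. Puromycin […] as baseline cytotoxicity control.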
# HIV-1 (IIIB) = assay: Antiviral assay in MT-4 cells; format: cell-based; details: Human immunodeficiency virus 1, MT4, 120 h; HIV-1 IIIB in MT-4 cells, 5 days incubation, Cell Titer Glo; read-out: MT4 EC50
# Summary of the method: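 HIV-1 IIIB-infected MT-4 cells (fresh 1:250 virus stock dilution; mock-infected controls) incubated 5 days at 37 °C with serially diluted compounds in RPMI/10% FBS; 5 μM AZT as positive control. Cell viability read by CellTiter-Glo luminescence as measure of protection from viral replication.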
Structure (SMILES),EC50 (HIV-1 (IIIB)),CC50 at 5 days [1]
"COC1=NO[C@@]2(CC[C@H](C)N3C[C@H]2n2cc(C(=O)NCc4ccc(F)cc4F)c(=O)c(OC(=O)CCCCCCCCCCCCCCCCC(=O)O)c2C3=O)C1 [Example 77, 18-(((3′S,5S,7′R)-10′-((2,4-difluorobenzyl)carbamoyl)-3-methoxy-3′-methyl-1′,11′-dioxo-1′,4′,5′,11′-tetrahydro-3′H,4H,7′H-spiro[isoxazole-5,6′-[2,7]methanopyrido[1,2-a][1,4]diazonin]-12′-yl)oxy)-18-oxooctadecanoic acid]",0.658 nM,≥ 50000 nM
"CCCCCC(=O)OCOc1c2n(cc(C(=O)NCc3ccc(F)cc3F)c1=O)[C@@H]1CN(C2=O)[C@@H](C)CC[C@]12CC(OC)=NO2 [Example 91, (((3′S,5S,7′R)-10′-((2,4-difluorobenzyl)carbamoyl)-3-methoxy-3′-methyl-1′,11′-dioxo-1′,4′,5′,11′-tetrahydro-3′H,4H,7′H-spiro[isoxazole-5,6′-[2,7]methanopyrido[1,2-a][1,4]diazonin]-12′-yl)oxy)methyl hexanoate]",1.86 nM,37300 nM
"COCCOC(=O)Oc1c2n(cc(C(=O)NCc3ccc(F)cc3F)c1=O)[C@@H]1CN(C2=O)[C@@H](C)CC[C@]12CC(C)=NO2 [Example 9, (3′S,5S,7′R)-10′-((2,4-difluorobenzyl)carbamoyl)-3,3′-dimethyl-1′,11′-dioxo-1′,4′,5′,11′-tetrahydro-3′H,4H,7′H-spiro[isoxazole-5,6′-[2,7]methanopyrido[1,2-a][1,4]diazonin]-12′-yl (2-methoxyethyl) carbonate]",1.61 nM,19600 nM
"CCCCC/C=C\C/C=C\CCCCCCCC(=O)Oc1c2n(cc(C(=O)NCc3ccc(F)cc3F)c1=O)[C@@H]1CN(C2=O)[C@@H](C)CC[C@]12CC(OC)=NO2 [Example 7, (3′S,5S,7′R)-10′-((2,4-difluorobenzyl)carbamoyl)-3-methoxy-3′-methyl-1′,11′-dioxo-1′,4′,5′,11′-tetrahydro-3′H,4H,7′H-spiro[isoxazole-5,6′-[2,7]methanopyrido[1,2-a][1,4]diazonin]-12′-yl (9Z,12Z)-octadeca-9,12-dienoate]",7.46 nM,≥ 50000 nM
"CCCCC(=O)Oc1c2n(cc(C(=O)NCc3ccc(F)cc3F)c1=O)[C@@H]1CN(C2=O)[C@@H](C)CC[C@]12CC(OC)=NO2 [Example 29, (3′S,5S,7′R)-10′-((2,4-difluorobenzyl)carbamoyl)-3-methoxy-3′-methyl-1′,11′-dioxo-1′,4′,5′,11′-tetrahydro-3′H,4H,7′H-spiro[isoxazole-5,6′-[2,7]methanopyrido[1,2-a][1,4]diazonin]-12′-yl pentanoate]",1.61 nM,12300 nM
"CCCCC(=O)OCOc1c2n(cc(C(=O)NCc3ccc(F)cc3F)c1=O)[C@@H]1CN(C2=O)[C@@H](C)CC[C@]12CC(C)=NO2 [Example 90, (((3′S,5S,7′R)-10′-((2,4-difluorobenzyl)carbamoyl)-3,3′-dimethyl-1′,11′-dioxo-1′,4′,5′,11′-tetrahydro-3′H,4H,7′H-spiro[isoxazole-5,6′-[2,7]methanopyrido[1,2-a][1,4]diazonin]-12′-yl)oxy)methyl pentanoate]",0.176 nM,18200 nM
"COC1=NO[C@@]2(CC[C@H](C)N3C[C@H]2n2cc(C(=O)NCc4ccc(F)cc4F)c(=O)c(OCOC(=O)CC(C)C)c2C3=O)C1 [Example 110, (((3′S,5S,7′R)-10′-((2,4-difluorobenzyl)carbamoyl)-3-methoxy-3′-methyl-1′,11′-dioxo-1′,4′,5′,11′-tetrahydro-3′H,4H,7′H-spiro[isoxazole-5,6′-[2,7]methanopyrido[1,2-a][1,4]diazonin]-12′-yl)oxy)methyl 3-methylbutanoate]",1.5 nM,16400 nM

# More lines, main results first:
EC50 (HIV-1 (IIIB)),Structure (SMILES),CC50 at 5 days [1]
3.09 nM,"COC1=NO[C@@]2(CC[C@H](C)N3C[C@H]2n2cc(C(=O)NCc4ccc(F)cc4F)c(=O)c(OCOC(=O)OC[C@@H](C)OC)c2C3=O)C1 [Example 218, (((3′S,5S,7′R)-10′-((2,4-difluorobenzyl)carbamoyl)-3-methoxy-3′-methyl-1′,11′-dioxo-1′,4′,5′,11′-tetrahydro-3′H,4H,7′H-spiro[isoxazole-5,6′-[2,7]methanopyrido[1,2-a][1,4]diazonin]-12′-yl)oxy)methyl ((R)-2-methoxypropyl) carbonate]",32500 nM
0.594 nM,"COC1=NO[C@@]2(CC[C@H](C)N3C[C@H]2n2cc(C(=O)NCc4ccc(F)cc4F)c(=O)c(OCOC(=O)OCCCCCC(C)C)c2C3=O)C1 [Example 208, (((3′S,5S,7′R)-10′-((2,4-difluorobenzyl)carbamoyl)-3-methoxy-3′-methyl-1′,11′-dioxo-1′,4′,5′,11′-tetrahydro-3′H,4H,7′H-spiro[isoxazole-5,6′-[2,7]methanopyrido[1,2-a][1,4]diazonin]-12′-yl)oxy)methyl (6-methylheptyl) carbonate]",21300 nM
1.72 nM,"CC1=NO[C@@]2(CC[C@H](C)N3C[C@H]2n2cc(C(=O)NCc4ccc(F)cc4F)c(=O)c(OC(=O)OCCCCC(C)C)c2C3=O)C1 [Example 154, (3′S,5S,7′R)-10′-((2,4-difluorobenzyl)carbamoyl)-3,3′-dimethyl-1′,11′-dioxo-1′,4′,5′,11′-tetrahydro-3′H,4H,7′H-spiro[isoxazole-5,6′-[2,7]methanopyrido[1,2-a][1,4]diazonin]-12′-yl (5-methylhexyl) carbonate]",17200 nM
18.4 nM,"CCCCCCCCCCCCCCCCCCOC(=O)OCOc1c2n(cc(C(=O)NCc3ccc(F)cc3F)c1=O)[C@@H]1CN(C2=O)[C@@H](C)CC[C@]12CC(C)=NO2 [Example 196, (((3′S,5S,7′R)-10′-((2,4-difluorobenzyl)carbamoyl)-3,3′-dimethyl-1′,11′-dioxo-1′,4′,5′,11′-tetrahydro-3′H,4H,7′H-spiro[isoxazole-5,6′-[2,7]methanopyrido[1,2-a][1,4]diazonin]-12′-yl)oxy)methyl octadecyl carbonate]",≥ 50000 nM
0.527 nM,"CCCCCOC(=O)OCOc1c2n(cc(C(=O)NCc3ccc(F)cc3F)c1=O)[C@@H]1CN(C2=O)[C@@H](C)CC[C@]12CC(C)=NO2 [Example 179, (((3′S,5S,7′R)-10′-((2,4-difluorobenzyl)carbamoyl)-3,3′-dimethyl-1′,11′-dioxo-1′,4′,5′,11′-tetrahydro-3′H,4H,7′H-spiro[isoxazole-5,6′-[2,7]methanopyrido[1,2-a][1,4]diazonin]-12′-yl)oxy)methyl pentyl carbonate]",≥ 50000 nM
3.73 nM,"CC1=NO[C@@]2(CC[C@H](C)N3C[C@H]2n2cc(C(=O)NCc4ccc(F)cc4F)c(=O)c(OCOC(=O)OCCCCCCCC(C)C)c2C3=O)C1 [Example 211, (((3′S,5S,7′R)-10′-((2,4-difluorobenzyl)carbamoyl)-3,3′-dimethyl-1′,11′-dioxo-1′,4′,5′,11′-tetrahydro-3′H,4H,7′H-spiro[isoxazole-5,6′-[2,7]methanopyrido[1,2-a][1,4]diazonin]-12′-yl)oxy)methyl (8-methylnonyl) carbonate]",36700 nM
2.07 nM,"CCCCCCCCCOC(=O)Oc1c2n(cc(C(=O)NCc3ccc(F)cc3F)c1=O)[C@@H]1CN(C2=O)[C@@H](C)CC[C@]12CC(C)=NO2 [Example 137, (3′S,5S,7′R)-10′-((2,4-difluorobenzyl)carbamoyl)-3,3′-dimethyl-1′,11′-dioxo-1′,4′,5′,11′-tetrahydro-3′H,4H,7′H-spiro[isoxazole-5,6′-[2,7]methanopyrido[1,2-a][1,4]diazonin]-12′-yl nonyl carbonate]",10200 nM
5.14 nM,"CCCCCCCCOC(=O)OCOc1c2n(cc(C(=O)NCc3ccc(F)cc3F)c1=O)[C@@H]1CN(C2=O)[C@@H](C)CC[C@]12CC(OC)=NO2 [Example 185, (((3′S,5S,7′R)-10′-((2,4-difluorobenzyl)carbamoyl)-3-methoxy-3′-methyl-1′,11′-dioxo-1′,4′,5′,11′-tetrahydro-3′H,4H,7′H-spiro[isoxazole-5,6′-[2,7]methanopyrido[1,2-a][1,4]diazonin]-12′-yl)oxy)methyl octyl carbonate]",≥ 50000 nM
0.274 nM,"CCCCCOC(=O)OCOc1c2n(cc(C(=O)NCc3ccc(F)cc3F)c1=O)[C@@H]1CN(C2=O)[C@@H](C)CC[C@]12CC(OC)=NO2 [Example 180, (((3′S,5S,7′R)-10′-((2,4-difluorobenzyl)carbamoyl)-3-methoxy-3′-methyl-1′,11′-dioxo-1′,4′,5′,11′-tetrahydro-3′H,4H,7′H-spiro[isoxazole-5,6′-[2,7]methanopyrido[1,2-a][1,4]diazonin]-12′-yl)oxy)methyl pentyl carbonate]",≥ 50000 nM
0.573 nM,"CC1=NO[C@@]2(CC[C@H](C)N3C[C@H]2n2cc(C(=O)NCc4ccc(F)cc4F)c(=O)c(OC(=O)OCCCC(C)C)c2C3=O)C1 [Example 152, (3′S,5S,7′R)-10′-((2,4-difluorobenzyl)carbamoyl)-3,3′-dimethyl-1′,11′-dioxo-1′,4′,5′,11′-tetrahydro-3′H,4H,7′H-spiro[isoxazole-5,6′-[2,7]methanopyrido[1,2-a][1,4]diazonin]-12′-yl (4-methylpentyl) carbonate]",14900 nM
